{"source": "patent US20210282401A1", "about": "“FUNGICIDAL COMPOUNDS AND MIXTURES FOR FUNGAL CONTROL IN CEREALS” (Dow AgroSciences LLC, priority 2016, published 2021)", "type_in_all_cases": "in vivo", "key": {"[1]": {"tested_on": "Rhynchosporium secalis (RHYNSE)", "test": "Field assessment of scald of barley (RHYNSE), trials 2 and 3, relative AUDPC", "details": "Trial 2, 3, based on AUDPC", "description": "(§1) Field Assessment of Mixtures of the Compound of Formula I and Pyraclostrobin on Rhynchosporium secalis (RHYNSE) in Barley:\nIn the remaining trials, treatments consisting of the compound of Formula I and the fungicide pyraclostrobin were applied either using individually or as a two-way mixture with the compound of Formula I. […] Commercial standards used in these studies were SiltraXpro (200 g ai/L prothioconazole+60 g ai/ha bixafen) applied at 260 g ai/ha, and Opera (133 g/L pyraclostrobin+50 g/L epoxiconazole) applied at 220 g ai/ha. All treatments were part of an experimental trial designed as a randomized complete block with four replications.\n(§2) Disease severity (percentage of visual diseased foliage on whole plot or leaves) in both trials was recorded following EPPO PP1/26 guideline prescriptions. Area under the disease progress curve (AUDPC) was calculated for each plot in both trials using the sets of recorded severity data. Relative AUDPC (% control based on AUDPC) was calculated as percent of the nontreated control. Final results for the control of scald of barley by the compound of Formula I, pyraclostrobin and mixtures are reported as an average of the relative AUDPC calculated over both field trials. Statistical analysis was done according to ANOVA and Tukey's test (p=0.10)."}, "[2]": {"tested_on": "Puccinia recondita (PUCCRT)", "test": "Field assessment of brown rust of wheat (PUCCRT), relative AUDPC, 2 field trials", "details": "based on AUDPC", "description": "(§3) Treatments consisting of the compound of Formula I and the fungicide picoxystrobin were applied either using individually or as a two-way mixture with the compound of Formula I. The compound of Formula I was applied with Agnique BP-420 (50% w/w at 0.3% v/v) at 75 and 150 g ai/ha and picoxystrobin (Acanto) was applied at 125 and 200 g ai/ha. The commercial standard used in the studies was Fluxapyroxad (Imtrex) and was applied at 100 g ai/ha.\nField Assessment of Puccinia recondita (PUCCRT) in Wheat:\nFungicidal treatment containing the compound of Formula I and picoxystrobin, either individually or as a two mixture, were assessed against brown rust of wheat (PUCCRT) in two separate field trials. In the first trial, fungicidal treatments were applied at B37-39 (protectant, approximately 0% infection at application) growth stage of wheat (TRZAW, MV Vanek variety) under natural infection of brown rust. The treatment was part of an experimental trial designed as a randomized complete block with four replications and a plot of approximately 2×3 m. Fungicidal treatments were applied at a water volume of 200 L/ha, using a backpack plot sprayer with a TEEJET QJ90-2XTT110 015 Nozzle.\nIn the second trial, fungicidal treatments containing the compound of Formula I and picoxystrobin, either individually or as a two way mixture, were applied at B33 (curative, approximately 6.6% infection at application) growth stage of wheat (TRZAW, Miradoux variety) under natural infection of brown rust. The treatments were part of an experimental trial designed as a randomized complete block with four replications and a plot of approximately 2×3 m. Fungicidal treatments were applied at a water volume of 200 L/ha, using a backpack plot sprayer with a HARDI MD110-02 Nozzle.\n(§4) Disease severity (percentage of visual diseased foliage on whole plot or leaves) in both field trials was assessed at 5 weeks after application and was recorded following EPPO PP1/26 guideline prescriptions. Area under the disease progress curve (AUDPC) was calculated for each plot in both trials using the sets of recorded severity data. Relative AUDPC (% control based on AUDPC) was calculated as percent of the nontreated control. Final results for the control of brown rust of wheat by the compound of Formula I, picoxystrobin, and mixtures are reported as an average of the relative AUDPC calculated over both field trials. Statistical analysis was done according to ANOVA and Tukey's test (p=0.10)."}, "[3]": {"tested_on": "Puccinia striiformis (PUCCST)", "test": "Field assessment of yellow rust of wheat (PUCCST), relative AUDPC, 2 field trials", "details": "based on AUDPC", "description": "as §3\nField Assessment of Puccinia striiformis (PUCCST) in Wheat:\nFungicidal treatments containing the compound of Formula I and picoxystrobin, either individually or as a two way mixture, were assessed against yellow rust of wheat (PUCCST) in two separate field trials. […]\nas §4, with “4-7” for “5”, “yellow” for “brown”, “Statistical analysis was done according to ANOVA and Tukey's test (p=0.10).” left out"}, "[4]": {"tested_on": "Puccinia hordei (PUCCHD)", "test": "Field assessment of rust of barley (PUCCHD), relative AUDPC, 2 field trials", "details": "based on AUDPC", "description": "Treatments consisting of the compound of Formula I and the fungicide pyraclostrobin were applied either using individually or as a two-way mixture with the compound of Formula I. The compound of Formula I was applied with Agnique BP-420 (50% w/w at an active:adjuvant ratio of 1:2) at 75, 100 and 150 g ai/ha and with pyraclostrobin (Comet 200) at 100, 150 and 200 g ai/ha. Commercial standards used in these studies were Proline 275 (275 g ai/L Prothioconazole), applied at 150 g ai/ha, and SiltraXpro (200 g ai/L prothioconazole+60 g ai/ha bixafen), applied at 195 g ai/ha.\nField Assessment of Mixtures of the Compound of Formula I and Pyraclostrobin on Puccinia Hordie (PUCCHD) in Barley: […]\nFungicidal treatments containing the compound of Formula I and pyraclostrobin, either individually or as a two-way mixture, were assessed against rust of barley (PUCCHD) in two separate field trials. In both trials, fungicidal treatments were applied at B37-39 growth stages of winter barley (Lomeritt variety) under natural infection of barley rust. All treatments were part of an experimental trial designed as a randomized complete block with four replications.\nas §2, with “in both field trials was” for “in both trials was”, “control of rust of barley” for “control of scald of barley”"}, "[5]": {"tested_on": "Rhynchosporium secalis (RHYNSE)", "test": "Field assessment of scald of barley (RHYNSE), trial 1, relative AUDPC", "details": "Trial 1, based on AUDPC", "description": "(§5) Commercial standards used in these studies were Proline 275 (275 g ai/L Prothioconazole), applied at 150 g ai/ha, and SiltraXpro (200 g ai/L prothioconazole+60 g ai/ha bixafen), applied at 195 g ai/ha.\nas §1\nFungicidal treatments containing the compound of Formula I and fluxapyroxad, either individually or as a two-way mixture, were assessed against scald of barley (RHYNSE) in three field trials. In the first trial, fungicidal treatments were applied at B37-39 growth stages of winter barley (HORVW, Maris Otter variety) under natural infection of barley scald (protectant test, approximately 1% infection on leaf 4 at application). All treatments were part of an experimental trial designed as a randomized complete block with four replications.\nDisease severity (percentage of visual diseased foliage on whole plot or leaves) in the first trial was recorded following EPPO PP1/26 guideline prescriptions. Area under the disease progress curve (AUDPC) was calculated for each plot in the trial using the sets of recorded severity data. Relative AUDPC (% control based on AUDPC) was calculated as percent of the nontreated control. […] Statistical analysis was done according to ANOVA and Tukey's test (p=0.10)."}, "[6]": {"tested_on": "Pyrenophora teres (PYRNTE)", "test": "Field assessment of net blotch of barley (PYRNTE), relative AUDPC", "details": "based on AUDPC", "description": "as §5\nField Assessment of Mixtures of the Compound of Formula I and Pyraclostrobin on Pyrenophora teres (PYRNTE) in Barley:\n[…] […], fungicidal treatments were applied at B31-37 growth stages of winter barley and sprong barley (HORVW, Lomeritt variety; HORVS, Scarlett variety) under natural infection of net blotch (protectant tests, 1% infection on leaf 4 and 10% infection on leaf 6 at application). All treatments were part of an experimental trial designed as a randomized complete block with four replications.\n[…] […] Relative AUDPC (% control based on AUDPC) was calculated as percent of the nontreated control. […] Statistical analysis was done according to ANOVA and Tukey's test (p=0.10)."}}, "data": [{"smiles": "N#Cc1ccc(Oc2ccc(C(F)(F)C(O)(Cn3ncnc3S)c3ccc(F)cc3F)nc2)cc1", "note": "(stereo not drawn) [Compound I, 4-((6-(2-(2,4-difluorophenyl)-1,1-difluoro-2-hydroxy-3-(5-mercapto-1H-1,2,4-triazol-1-yl)propyl)pyridin-3-yl)oxy)benzonitrile]", "values": [{"measurement": "RHYNSE % Control", "setting": "[1]; 80 g ai/ha", "result": 15.6, "unit": "%"}, {"measurement": "RHYNSE % Control", "setting": "[1]; 125 g ai/ha", "result": 38.6, "unit": "%"}, {"measurement": "PUCCRT % Control", "setting": "[2]; 75 g ai/ha", "result": 90.7, "unit": "%"}, {"measurement": "PUCCRT % Control", "setting": "[2]; 150 g ai/ha", "result": 91.4, "unit": "%"}]}, {"smiles": "CO/C=C(/C(=O)OC)c1ccccc1COc1cccc(C(F)(F)F)n1", "note": "[Picoxystrobin, methyl (E)-3-methoxy-2-[2-(6-trifluoromethyl-2-pyridyloxymethyl)phenyl]acrylate]", "values": [{"measurement": "PUCCST % Control", "setting": "[3]; 125 g ai/ha", "result": 34.6, "unit": "%"}, {"measurement": "PUCCST % Control", "setting": "[3]; 200 g ai/ha", "result": 43.2, "unit": "%"}, {"measurement": "PUCCRT % Control", "setting": "[2]; 125 g ai/ha", "result": 64.6, "unit": "%"}, {"measurement": "PUCCRT % Control", "setting": "[2]; 200 g ai/ha", "result": 81.1, "unit": "%"}]}, {"smiles": "COC(=O)N(OC)c1ccccc1COc1ccn(-c2ccc(Cl)cc2)n1", "note": "[Pyraclostrobin, methyl N-[2-[[[1-(4-chlorophenyl)-1H-pyrazol-3-yl]oxy]methyl]phenyl]-N-methoxycarbamate]", "values": [{"measurement": "PUCCHD % Control", "setting": "[4]; 100 g ai/ha", "result": 63.3, "unit": "%"}, {"measurement": "PUCCHD % Control", "setting": "[4]; 150 g ai/ha", "result": 64.4, "unit": "%"}, {"measurement": "PUCCHD % Control", "setting": "[4]; 200 g ai/ha", "result": 78.7, "unit": "%"}, {"measurement": "RHYNSE % Control", "setting": "[5]; 100 g ai/ha", "result": 41.2, "unit": "%"}, {"measurement": "RHYNSE % Control", "setting": "[5]; 150 g ai/ha", "result": 45.0, "unit": "%"}, {"measurement": "RHYNSE % Control", "setting": "[5]; 200 g ai/ha", "result": 47.8, "unit": "%"}, {"measurement": "RHYNSE % Control", "setting": "[1]; 200 g ai/ha", "result": 43.0, "unit": "%"}, {"measurement": "PYRNTE % Control", "setting": "[6]; 100 g ai/ha", "result": 46.5, "unit": "%"}, {"measurement": "PYRNTE % Control", "setting": "[6]; 150 g ai/ha", "result": 60.5, "unit": "%"}, {"measurement": "PYRNTE % Control", "setting": "[6]; 200 g ai/ha", "result": 69.8, "unit": "%"}]}]}
